The values below come from US20120077863A1, “GUANIDINO-SUBSTITUTED BI-AND POLYPHENYLS AS SMALL MOLECULE CARRIERS” (UCL Business PLC, priority 2009, published 2012).

This assay deals with GAPD siRNA. Kind of assay: Isothermal calorimetry (ITC) binding of SMOC to siRNA. Conditions: 6G-SMOC 250 μM in syringe, siRNA 3.5 μM in cell, FIG. 2. As for the experimental part: An isothermal calorimetry experiment (ITC) was carried out to analyse the strength of the binding between the 6G-SMOG compound shown below and siRNA targeted to the […].
6G-SMOC at a concentration of 250 μM was loaded into the syringe of a Microcal VP-ITC calorimeter (450 μl), and the cell (1.8 ml) filled with GAPD siRNA (Dharmacon RNAi Technologies) at a concentration of 3.5 μM. A total of 37 injections of 8 μl each were made at 4 minute intervals to ensure total saturation of the siRNA. The binding curve was plotted using Origin 6.0 (Microcal) and the binding constants calculated.

Regarding `N=C(N)NCCOc1cccc(-c2ccc(-c3cccc(OCCNC(=N)N)c3OCCNC(=N)N)c(OCCNC(=N)N)c2OCCNC(=N)N)c1OCCNC(=N)N` [6G-SMOC], the Kd (commonly the free concentration of one partner at which half of the binding sites on the other are occupied at equilibrium, for simple one-to-one binding) was roughly 80 µM.
